This passage reports IC50 results from patent publication EP0463456A1, “Phosphorus-containing HMG-CoA reductase inhibitors, new intermediates and their use” (E.R. SQUIBB & SONS, INC., priority 1990, dated 1992).

The target in the experiment is T1, Human skin fibroblasts (Homo sapiens, UniProt P04035).
T1 sequence (P04035 1-888): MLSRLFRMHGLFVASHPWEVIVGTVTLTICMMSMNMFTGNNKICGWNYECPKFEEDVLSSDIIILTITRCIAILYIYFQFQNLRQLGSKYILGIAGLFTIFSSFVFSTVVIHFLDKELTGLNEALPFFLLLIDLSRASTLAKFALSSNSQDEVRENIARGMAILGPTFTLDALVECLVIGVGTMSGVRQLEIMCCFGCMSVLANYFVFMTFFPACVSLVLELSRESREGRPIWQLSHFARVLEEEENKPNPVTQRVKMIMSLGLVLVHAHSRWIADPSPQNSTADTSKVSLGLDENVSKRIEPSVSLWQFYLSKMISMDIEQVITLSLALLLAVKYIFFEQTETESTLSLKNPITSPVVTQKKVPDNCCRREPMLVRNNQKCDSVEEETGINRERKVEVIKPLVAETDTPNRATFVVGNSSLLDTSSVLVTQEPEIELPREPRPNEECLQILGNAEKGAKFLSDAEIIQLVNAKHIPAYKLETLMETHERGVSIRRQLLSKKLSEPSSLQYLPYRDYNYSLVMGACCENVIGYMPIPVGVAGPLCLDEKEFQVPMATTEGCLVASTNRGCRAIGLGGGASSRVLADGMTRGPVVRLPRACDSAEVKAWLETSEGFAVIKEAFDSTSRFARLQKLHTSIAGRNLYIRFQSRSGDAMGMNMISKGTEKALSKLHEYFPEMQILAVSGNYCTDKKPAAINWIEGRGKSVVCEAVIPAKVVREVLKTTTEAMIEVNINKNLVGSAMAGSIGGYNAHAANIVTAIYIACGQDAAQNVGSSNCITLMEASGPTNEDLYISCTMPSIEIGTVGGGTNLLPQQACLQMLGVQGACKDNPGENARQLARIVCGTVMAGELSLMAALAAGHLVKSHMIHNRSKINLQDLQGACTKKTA
In words: Cholesterol Synthesis in Human Skin Fibroblasts (14C-acetate incorporation into cholesterol). The experiment is classed as cell-based. The note with it: inhibition of 14C-acetate incorporation into cholesterol; 30 minutes preincubation, 4 hours with acetate; read-out: Fibroblasts 150. The procedure:
3) Cholesterol Synthesis in Human Skin Fibroblasts
Compound selectivity favoring greater inhibitory activity in hepatic tissue would be an attribute for a cholesterol synthesis inhibitor. Therefore, in addition to evaluating cholesterol synthesis inhibitors in hepatocytes, these compounds are also tested for their activity as inhibitors of cholesterol synthesis in cultured fibroblasts. […]
a. Human Skin Fibroblast Cultures
Human skin fibroblasts (passage 7-27) are grown in Eagles' minimal essential medium (EM) containing 10% fetal calf serum. For each experiment, stock cultures are trypsonized to disperse the cell monolayer, counted, and plated in 35 mm tissue culture wells (5x10^S cells/2.0 ml). […]
Induced fibroblast cultures are washed with EMEM100 (Earle's minimal essential medium). […] The organic phase is dried under nitrogen, and the residue resuspended in chloroform:methanol (2:1) (100 µl), and the total sample spotted on silica gel (LK6D) thin-layer plates, V, VO and analyzed as described for hepatocytes.
Inhibition of cholesterol synthesis is determined by comparing the percent of label in the cholesterol peak from control and drug-treated cultures. Results are expressed as 150 values, and are derived from composite dose response curves from two or more experiments. A 95% confidence interval for the 150 value is also calculated from the composite dose response curves.

Take “(S)-4-[[[4-(4-Fluorophenyl)-1,2-bis(1-methylethyl)-5-phenyl-1H-pyrrol-3-yl]-ethynyl]hydroxyphosphinyl]-3-hydroxybutanoic acid, dilithium salt [SQ 34,346]”: the IC50 was 2500 nM.
